According to US20200352991A1, “POLYMER FILMS WITH ANTIMICROBIAL AGENTS” (The Trustees of Columbia University in the City of New York, priority 2017, published 2020):

Columns and labels:
[1] = system: S. aureus; assay: Rapid kill test, 15 second time kill; format: cell-based; details: 100 ul of 104 S. aureus culture, 15 second time kill
[2] = system: P. aeruginosa (ATCC 15442); assay: Zone of inhibition test of coated endotracheal tubes, modified Kirby-Bauer method; format: cell-based; details: coated endotracheal tube segments, 24 hours, ETT diameter (10 mm) is included
Protocol: Efficacy of the coated tubes was evaluated by zone of inhibition test against P. aeruginosa (ATCC 15442) after 24 hours.
Method: The anti-microbial efficacy of the coated endotracheal tube (ETT) was evaluated by zone of inhibition test against P. aeruginosa (ATCC 15442) according to the modified Kirby-Bauer method. Trypticase soy agar (TSA) plates were seeded with 0.3 mL of overnight grown bacterial culture diluted to 107 colony forming units (CFU) per mL.
Antimicrobial coated ETTs were cut into 0.5 cm segments and embedded vertically into the agar plate. Uncoated ETT segments were used as control. After 24 hours of incubation at 37° C., the diameters of zones of inhibition around the ETT segments, including the diameters of the ETT, were measured.

| SMILES | Log10 reduction [1] | Zone of inhibition against P. aeruginosa [2] |
| --- | --- | --- |
| CC(=O)N[C@@H](CS)C(=O)O [N-acetyl cystein (NAC, 1%), N-acetyl cystein] | 0.34 Log10 | 0 mm |
| [H]/N=C(\N/C(=N/[H])NCCCCCCNC(=N)NC(=N)Nc1ccc(Cl)cc1)Nc1ccc(Cl)cc1 [Chlorhexidine (CHX, 0.3%), Chlorhexidine] | 4.51 Log10 | 20 mm |
